Measurements taken from patent US4965269A, “Therapeutically active chloro substituted benzimidazoles” (AB Hassle, priority 1989, dated 1990).

Assay: Chemical stability in aqueous buffer solution
Assay type: physicochemical
Settings: pH 2, 37° C., time after which 10% of the original compound has decomposed
Protocol: The chemical stability of the compounds of the invention has been followed kinetically at low concentration at 37° C. in aqueous buffer solution at different pH values. The results in Table 3 show the half life (t 1/2) at pH 7, that is the time period after which half the amount of the original compound remains unchanged, and t10 % at pH 2, that is the time period after which 10% of the original compound has decomposed.

| SMILES | Chemical Stability at pH 2, t 10% |
| --- | --- |
| CCCCOC(=O)OCn1c([S+]([O-])Cc2nccc(OC)c2OC)nc2ccc(Cl)cc21 (stereo not shown) [Example 4, 6-chloro-2[[(3,4-dimethoxy-2pyridinyl)methyl]sulfinyl]-1H-benzimidazole-1-ylmethyl butyl carbonate] | 42 h |
| COc1ccnc(C[S+]([O-])c2nc3cc(Cl)ccc3n2COC(=O)OCc2ccccc2)c1OC (stereo not shown) [Example 1, 5-chloro-2-[[(3,4-dimethoxy-2-pyridinyl)methyl]sulfinyl]-1H-benzimidazole-1-ylmethyl benzyl carbonate] | 14 h |
| CCCCOC(=O)OCn1c([S+]([O-])Cc2nccc(OC)c2OC)nc2cc(Cl)ccc21 (stereo not shown) [Example 3, 5-chloro-2-[[(3,4-dimethoxy-2-pyridinyl)methyl]sulfinyl]-1H-benzimidazole-1-ylmethyl butyl carbonate] | 21 h |
| COc1ccnc(C[S+]([O-])c2nc3ccc(Cl)cc3n2COC(=O)OCc2ccccc2)c1OC (stereo not shown) [Example 2, 6-chloro-2-[[(3,4-dimethoxy-2-pyridinyl)methyl]sulfinyl]-1H-benzimidazole-1-ylmethyl benzyl carbonate] | 27 h |
